Each compound was assayed against T1, human TRPA1 receptor (Homo sapiens, UniProt O75762) (assay: Inhibition of AITC induced cellular uptake of radioactive calcium in human TRPA1 expressing CHO cells). Conditions: read-out: hTRPA1 IC50 values.
T1 construct: expressed in transfected cells; host or cells: CHO cells
Assay type: cell-based
Description: The human IC50 values were measured by the following method:
The inhibition of TRPA1 receptor activation is measured as inhibition of allylisothiocyanate (AITC) induced cellular uptake of radioactive calcium.
Test compound solution is prepared in a suitable solvent.
Human TRPA1 expressing CHO cells are grown in suitable medium. Cells are treated with test compounds followed by addition of AITC.
Cells are washed, lysed and the radioactivity in the lysate is measured in Packard Top count after addition of liquid scintillant.
The concentration response curves for compounds are plotted as a % of maximal response obtained in the absence of test antagonist, and the IC50 values are calculated from such concentration response curve by nonlinear regression analysis using GraphPad PRISM software.

T1 sequence (O75762 whole entry): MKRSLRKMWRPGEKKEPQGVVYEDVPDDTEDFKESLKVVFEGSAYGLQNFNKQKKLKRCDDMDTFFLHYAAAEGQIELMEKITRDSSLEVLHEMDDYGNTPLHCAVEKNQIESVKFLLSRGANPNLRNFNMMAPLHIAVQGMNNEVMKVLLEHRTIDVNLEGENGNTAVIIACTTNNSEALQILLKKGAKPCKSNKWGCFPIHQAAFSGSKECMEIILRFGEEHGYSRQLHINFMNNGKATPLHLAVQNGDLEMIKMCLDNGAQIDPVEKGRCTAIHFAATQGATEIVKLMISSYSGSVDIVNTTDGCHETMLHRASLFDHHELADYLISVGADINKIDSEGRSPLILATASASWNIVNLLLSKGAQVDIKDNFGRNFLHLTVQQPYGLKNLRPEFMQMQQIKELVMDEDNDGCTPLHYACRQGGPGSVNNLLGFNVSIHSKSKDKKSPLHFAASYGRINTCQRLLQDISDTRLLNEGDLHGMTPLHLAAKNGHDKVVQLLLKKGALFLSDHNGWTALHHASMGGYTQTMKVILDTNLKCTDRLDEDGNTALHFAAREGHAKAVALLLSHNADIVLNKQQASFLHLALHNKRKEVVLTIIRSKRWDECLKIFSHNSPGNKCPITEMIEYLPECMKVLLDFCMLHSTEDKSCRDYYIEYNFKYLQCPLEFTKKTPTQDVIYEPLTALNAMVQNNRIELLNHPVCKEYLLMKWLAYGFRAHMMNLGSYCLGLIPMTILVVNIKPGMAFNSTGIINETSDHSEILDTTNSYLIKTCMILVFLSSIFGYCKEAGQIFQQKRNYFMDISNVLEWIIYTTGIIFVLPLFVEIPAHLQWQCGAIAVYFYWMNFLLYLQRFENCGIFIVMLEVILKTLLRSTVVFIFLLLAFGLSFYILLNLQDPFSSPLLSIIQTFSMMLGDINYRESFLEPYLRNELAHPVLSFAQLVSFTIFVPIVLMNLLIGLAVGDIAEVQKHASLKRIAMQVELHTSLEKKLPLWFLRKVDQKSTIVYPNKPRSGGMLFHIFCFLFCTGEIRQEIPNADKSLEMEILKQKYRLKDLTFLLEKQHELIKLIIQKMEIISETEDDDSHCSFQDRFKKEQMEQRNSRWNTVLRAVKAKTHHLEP

Q: Which IC50 does the source give for `Cn1c(=O)c2c(CC(=O)Nc3nc(-c4ccc(OC(F)(F)F)c(F)c4)cs3)nccc2n(C)c1=O` [Compound 88] here?
A: The IC50 was 11.4 nM.

Q: How did the IC50 turn out when `Cc1oc2c(c1CC(=O)Nc1nc(-c3ccc(C(F)(F)F)c(F)c3)cs1)c(=O)n(C)c(=O)n2C` [Compound 65] was run?
A: Its IC50 is 6.65 nM.

Q: For `Cn1c(=O)c2c(CC(=O)Nc3nc(-c4ccc(F)c(C(F)(F)F)c4F)cs3)csc2n(C)c1=O` [Compound 52], which IC50 is on record?
A: Its IC50 is 2.49 nM.

Q: `Cn1c(=O)c2c(ncn2CC(=O)Nc2nc(-c3ccc(Br)cc3)cs2)n(C)c1=O` [Compound 91] was tested. Which IC50 did it give?
A: Its IC50 is 451 nM.

Q: With `Cn1c(=O)c2c(ccn2CC(=O)Nc2nc(-c3cc(Cl)c(OCCC(F)(F)F)c(Cl)c3)cs2)n(C)c1=O` [Compound 35] as the compound, how does the IC50 read?
A: Its IC50 is 18 nM.

Q: Which IC50 does the source give for `Cn1c(=O)c2c(CC(=O)Nc3nc(-c4ccc(C(F)(F)F)c(F)c4)cs3)csc2n(C)c1=O` [Compound 51] here?
A: The IC50 was 4.84 nM.

Q: `Cn1c(=O)c2c(CC(=O)Nc3nc(-c4cc(F)c(OCC(F)(F)F)c(F)c4)cs3)coc2n(C)c1=O` [Compound 56] was tested. Which IC50 did it give?
A: Its IC50 is 3.38 nM.

Q: `COCCCOc1cccc(C2NC(=S)NC3=C2C(=O)c2ccccc23)c1` (centres unmarked) [Compound 90] was tested. Which IC50 did it give?
A: The IC50 was 5.61 nM.

Q: How did the IC50 turn out when `Cc1oc2c(c1CC(=O)N=c1scc(-c3ccc(OC(F)(F)F)c(Cl)c3)n1COC(=O)CN)c(=O)n(C)c(=O)n2C` [Compound 98] was run?
A: The IC50 was 54.3 nM.

Q: Which IC50 does the source give for `Cn1c(=O)c2c(ccn2CC(=O)Nc2nc(-c3cc(F)c(OCC(F)(F)F)c(F)c3)cs2)n(C)c1=O` [Compound 37] here?
A: Its IC50 is 12.3 nM.

Q: How did the IC50 turn out when `Cc1oc2c(c1CC(=O)/N=c1\scc(-c3ccc(OC(F)(F)F)c(Cl)c3)n1COC(=O)[C@@H](N)C(C)C)c(=O)n(C)c(=O)n2C` [Compound 95] was run?
A: Its IC50 is 88.5 nM.

Q: How did the IC50 turn out when `CC(C)Cc1ccc(-c2csc(NC(=O)Cc3cccc4c3c(=O)n(C)c(=O)n4C)n2)cc1` [Compound 23] was run?
A: Its IC50 is 43.9 nM.

Q: For `Cn1c(=O)c2c(CC(=O)Nc3nc(-c4ccc(C(F)(F)F)c(F)c4F)cs3)nsc2n(C)c1=O` [Compound 84], which IC50 is on record?
A: The IC50 was 5.35 nM.

Q: With `Cc1oc2c(c1CC(=O)Nc1nc(-c3ccc(OC(F)(F)F)c(Cl)c3)cs1)c(=O)n(C)c(=O)n2C` [Compound 73] as the compound, how does the IC50 read?
A: The IC50 was 8.54 nM.

Q: How did the IC50 turn out when `Cn1c(=O)c2c(CC(=O)Nc3nc(-c4ccc(F)c(C(F)(F)F)c4F)cs3)onc2n(C)c1=O` [Compound 92] was run?
A: Its IC50 is 17.1 nM.

Q: `Cn1c(=O)c2c(CC(=O)Nc3ccn(-c4cccc(C(F)(F)F)c4)n3)cccc2n(C)c1=O` [Compound 16] was tested. Which IC50 did it give?
A: Its IC50 is 58.9 nM.

Q: With `Cn1c(=O)c2c(cnn2CC(=O)Nc2nc(-c3cc(Cl)c(OCC(C)(C)C)c(Cl)c3)cs2)n(C)c1=O` [Compound 44] as the compound, how does the IC50 read?
A: Its IC50 is 8.36 nM.
